Laboratory results as given in PMC7662308, “Hevein-Like Antimicrobial Peptides Wamps: Structure–Function Relationship in Antifungal Activity and Sensitization of Plant Pathogenic Fungi to Tebuconazole by WAMP-2-Derived Peptides” (International Journal of Molecular Sciences, 2020).
Values after ≈ are worked out from the molar mass of the structure shown. Read-outs that look alike come from different tables or passages of the source. Residues, ends and D or L forms follow the SMILES beside them.

How the values were obtained:
A. alternata [1] = format: cell-based, Alternaria alternata
Text: (§1) Conidia of Fusarium spp., A. alternata, B. sorokiniana, and C. cucumerinum were collected from the surface of their colonies on potato dextrose agar by flooding the mycelium with sterilized distilled water (SDW) and gently rubbing with a glass rod, while P. nodorum spores were obtained by washing off wheat kernels infested with the pathogen. The spores (conidia) were suspended in SDW (control) or in SDW-dissolved WAMPs, WAMP-2-derived peptides, the fungicide or their mixtures to a final concentration of 10^4–10^5 spores/mL and incubated at 20–22 °C for 5–6 or 12–16 h depending on the pathogen species. The number of germinated and non-germinated spores (500 ones of each pathogen per treatment) was counted in wells of a polystyrene culture plate using an inverted microscope followed by calculation of the percent of inhibition of the spore germination as compared to control.
(§2) For each pathogen, tests on evaluation of antifungal or sensitizing activity of WAMP homologues or their peptides (three replications per treatment, 500 counted conidia in each one) included at least two independent experimental series. Mean values, standard deviations (SD), standard errors (SE), and the significance of differences (p ≤ 0.05) of the means between treatments and controls (t-test for the independent variables) were determined using […] v. 6.1 software (StatSoft Inc., Tulsa, OK, USA).

C. cucumerinum = format: cell-based, Cladosporium cucumerinum
Text: as §1, §2

F. culmorum [2] = assay: Inhibition of spore (conidia) germination, microplate assay; format: cell-based, Fusarium culmorum; conditions: for IC50: WAMP-2-derived synthetic peptides, spore germination; for Inhibition of conidium germination: peptide alone, 400 μg/mL, mean of three experiments
Text: as §1, §2

B. sorokiniana [3] = format: cell-based, Bipolaris sorokiniana
Text: as §1, §2

F. oxysporum = format: cell-based, Fusarium oxysporum
Text: as §1, §2

P. nodorum [4] = format: cell-based, Parastagonospora nodorum
Text: as §1, §2

A. alternata [5] = system: A. alternata
Text: as §1, with “control. […]” for “control.”
(§3) The fragments were tested at concentrations ranging between 5, 10 and 50 μg/mL against B. sorokiniana, A. alternata or other cereal-pathogenic fungi (F. culmorum, F. avenacenum and P. nodorum), respectively, to concentrations that produced the inhibitory effect of ≤50%. The sub-fungicidal concentrations of tebuconazole were preliminarily determined for each pathogen through serial double or fivefold dilutions. […]

F. avenaceum [6] = assay: Inhibition of spore (conidia) germination, microplate assay; format: cell-based, Fusarium avenaceum; conditions: for IC50: WAMP-2-derived synthetic peptides, spore germination
Text: as §1, §2

B. sorokiniana [7] = assay: Checkerboard sensitization assay, WAMP-2 fragment with Folicur EC 250 (tebuconazole), spore germination; format: cell-based, Bipolaris sorokiniana; conditions: effective tebuconazole–WAMP-2 fragment composition; FFCI ≤ 0.5 = synergy; MFC by probit analysis
Text: as §1, with “control. […]” for “control.”
as §3

F. avenaceum [8] = assay: as above; format: cell-based, Fusarium avenaceum; conditions: effective tebuconazole–WAMP-2 fragment composition; FFCI ≤ 0.5 = synergy; MFC by probit analysis
Text: as §1, with “control. […]” for “control.”
as §3

P. nodorum [9] = assay: as above; format: cell-based, Parastagonospora nodorum; conditions: effective tebuconazole–WAMP-2 fragment composition; FFCI ≤ 0.5 = synergy; MFC by probit analysis
Text: as §1, with “control. […]” for “control.”
as §3

F. culmorum [10] = assay: as above; format: cell-based, Fusarium culmorum; conditions: effective tebuconazole–WAMP-2 fragment composition; FFCI ≤ 0.5 = synergy; MFC by probit analysis
Text: as §1, with “control. […]” for “control.”
as §3

[11] = WAMP-2-derived synthetic peptides, spore germination
[12] = peptide alone, 400 μg/mL, mean of three experiments

| Structure (SMILES) | IC50 (A. alternata [1]) [µg/mL] | IC50 (C. cucumerinum) [µg/mL] | IC50 (F. culmorum [2]) [µg/mL] | Inhibition of conidium germination (F. culmorum [2]) [%] | IC50 (B. sorokiniana [3]) [µg/mL] | IC50 (F. oxysporum) [µg/mL] | IC50 (P. nodorum [4]) [µg/mL] | IC50 (F. avenaceum [6]) [µg/mL] | also measured |
| --- | --- | --- | --- | --- | --- | --- | --- | --- | --- |
| N=C(N)NCCC[C@H](NC(=O)[C@H](CS)NC(=O)CNC(=O)[C@H](CCCNC(=N)N)NC(=O)[C@H](CS)NC(=O)[C@H](CCC(N)=O)NC(=O)[C@H](CO)NC(=O)[C@H](CCC(N)=O)NC(=O)[C@H](CS)NC(=O)[C@H](CO)NC(=O)CNC(=O)[C@H](CCCCN)NC(=O)CN)C(=O)O [WAMP-C] (H-GKGSCQSQCRGCR-OH) | 550.4 ± 41.3 (≈ 402 µM) | 5.3 ± 0.1 (≈ 3.87 µM) | >700 | 23 | 429.5 ± 51.5 (≈ 314 µM) | >700 | 329.6 ± 7.9 (≈ 241 µM) |  |  |
| CC(C)C[C@H](N)C(=O)N[C@@H](CS)C(=O)N[C@@H](CS)C(=O)NCC(=O)N[C@@H](CCCCN)C(=O)N[C@@H](Cc1ccc(O)cc1)C(=O)NCC(=O)N[C@@H](Cc1ccccc1)C(=O)N[C@@H](CS)C(=O)NCC(=O)N[C@@H](CO)C(=O)NCC(=O)O [WAMP-G1] (H-LCCGKYGFCGSG-OH) | >700 | >700 | >700 |  | 273.1 ± 45.7 (≈ 229 µM) | >700 | >700 |  |  |
| C[C@H](NC(=O)[C@H](CC(=O)O)NC(=O)CNC(=O)[C@H](CO)NC(=O)CNC(=O)[C@H](CS)NC(=O)[C@H](Cc1ccccc1)NC(=O)CNC(=O)[C@H](Cc1ccc(O)cc1)NC(=O)[C@H](CCCCN)NC(=O)CNC(=O)[C@H](CS)NC(=O)[C@@H](N)CS)C(=O)N[C@@H](Cc1ccc(O)cc1)C(=O)N[C@@H](CS)C(=O)O [WAMP-G2] (H-CCGKYGFCGSGDAYC-OH; N-terminus and C-terminus assumed) |  |  | >700 | 26.2 |  |  |  | 602.8 ± 3.1 (≈ 393 µM) | IC50 (A. alternata [1]; [11]): 145.6 ± 29.4 µg/mL (≈ 94.9 µM); Inhibition of conidium germination (A. alternata [1]; [12]): 83.8%; IC50 (C. cucumerinum; [11]): 410.2 ± 29.1 µg/mL (≈ 267 µM); type of peptide–fungicide interaction (A. alternata [5]; compositions 100 + 0.05 and 100 + 0.1 µg/mL (two of nine)): additive effect; FFCI (Fractional Fungicidal Concentration Index) (A. alternata [5]; effective tebuconazole–WAMP-2 fragment composition, FFCI ≤ 0.5 = synergy, MFC by probit analysis): 0.05; IC50 (B. sorokiniana [3]; [11]): 195.2 ± 36.8 µg/mL (≈ 127 µM); FFCI (Fractional Fungicidal Concentration Index) (B. sorokiniana [7]): 0.13; FFCI (Fractional Fungicidal Concentration Index) (F. avenaceum [8]): 0.03; IC50 (F. oxysporum; [11]): 391.2 ± 34.2 µg/mL (≈ 255 µM); FFCI (Fractional Fungicidal Concentration Index) (P. nodorum [9]): 0.04; IC50 (P. nodorum [4]; [11]): 424.1 ± 12.1 µg/mL (≈ 277 µM); FFCI (Fractional Fungicidal Concentration Index) (F. culmorum [10]): 0.02 |
| C[C@H](N)C(=O)N[C@@H](CCC(N)=O)C(=O)N[C@@H](CCCNC(=N)N)C(=O)N[C@@H](CS)C(=O)NCC(=O)N[C@@H](CC(=O)O)C(=O)N[C@@H](CCC(N)=O)C(=O)N[C@@H](C)C(=O)N[C@@H](CCCNC(=N)N)C(=O)NCC(=O)N[C@@H](C)C(=O)N[C@@H](CCCCN)C(=O)N[C@@H](CS)C(=O)O [WAMP-N] (H-AQRCGDQARGAKC-OH) | 102.6 ± 19.6 (≈ 75.2 µM) | 280.2 ± 29.7 (≈ 205 µM) | 332.4 ± 26.1 (≈ 244 µM) |  | 72.9 ± 12.4 (≈ 53.5 µM) | 238.0 ± 32.4 (≈ 175 µM) | 220.2 ± 13.5 (≈ 161 µM) | >700 | Inhibition of conidium germination (F. avenaceum [6]; [12]): 40.4% |
